Experimental data reported in ChEMBL document CHEMBL1201861, “Genomics of Drug Sensitity in Cancer screening data, Wellcome Trust Sanger Institute”.
pIC50: −log10 of the molar value.

Assays:
Assay in all cases: cells
Details in all cases: Homo sapiens
[1] = test system: TGBC24TKB; type: functional, cell-based;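 note: growth inhibition of human TGBC24TKB cells, read out with a cell viability assay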
Description: SANGER: Inhibition of human TGBC24TKB cell growth in a cell viability assay.

[2] = test system: SNU1; type: functional, cell-based;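 note: growth inhibition of human NCI-SNU-1 cells, measured with a cell viability assay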
Description: SANGER: Inhibition of human NCI-SNU-1 cell growth in a cell viability assay.

[3] = test system: ES3; type: functional, cell-based;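 note: growth inhibition of ES3 cells, read out with a cell viability assay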
Description: SANGER: Inhibition of human ES3 cell growth in a cell viability assay.

[4] = test system: NCI-H1299; type: functional, cell-based;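 note: growth inhibition of human NCI-H1299 cells, read out by a cell viability assay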
Description: SANGER: Inhibition of human NCI-H1299 cell growth in a cell viability assay.

[5] = test system: U-266; type: functional, cell-based
Description: SANGER: Inhibition of human U-266 cell growth in a cell viability assay.

[6] = test system: D-502MG; type: functional, cell-based
Description: SANGER: Inhibition of human D-502MG cell growth in a cell viability assay.

[7] = test system: ES6; type: functional, cell-based;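 note: growth inhibition of human ES6 cells, read out with a cell viability assay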
Description: SANGER: Inhibition of human ES6 cell growth in a cell viability assay.

[8] = test system: ATN-1; type: functional, cell-based;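 note: growth inhibition of human ATN-1 cells, read out with a cell viability assay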
Description: SANGER: Inhibition of human ATN-1 cell growth in a cell viability assay.

[9] = test system: KG-1; type: functional, cell-based;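 note: growth inhibition of KG-1 cells, read out by a cell viability assay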
Description: SANGER: Inhibition of human KG-1 cell growth in a cell viability assay.

[10] = test system: LB771-HNC; type: functional, cell-based;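 note: growth inhibition of LB771-HNC human cells, read out with a cell viability assay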
Description: SANGER: Inhibition of human LB771-HNC cell growth in a cell viability assay.

[11] = test system: NCI-H1770; type: functional, cell-based;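 note: growth inhibition of NCI-H1770 cells determined with a viability readout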
Description: SANGER: Inhibition of human NCI-H1770 cell growth in a cell viability assay.

[12] = test system: SNB-75; type: functional, cell-based;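 note: cell viability assay measuring growth inhibition of human SNB-75 cells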
Description: SANGER: Inhibition of human SNB75 cell growth in a cell viability assay.

[13] = test system: NH-12; type: functional, cell-based;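 note: growth inhibition of NH-12 cells, read out with a cell viability assay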
Description: SANGER: Inhibition of human NH-12 cell growth in a cell viability assay.

[14] = test system: MHH-PREB-1; type: functional, cell-based;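 note: cell viability assay measuring inhibition of proliferation of human MHH-PREB-1 cells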
Description: SANGER: Inhibition of human MHH-PREB-1 cell growth in a cell viability assay.

[15] = test system: SF-539; type: functional, cell-based;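 note: Read-out is a cell viability assay, with IC50 reflecting inhibition of cell growth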
Description: SANGER: Inhibition of human SF539 cell growth in a cell viability assay.

[16] = test system: LS-513; type: functional, cell-based
Description: SANGER: Inhibition of human LS-513 cell growth in a cell viability assay.

[17] = test system: J-RT3-T3-5; type: functional, cell-based;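 note: cell viability assay measuring growth inhibition of human J-RT3-T3-5 cells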
Description: SANGER: Inhibition of human J-RT3-T3-5 cell growth in a cell viability assay.

[18] = test system: ES1; type: functional, cell-based;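 note: growth inhibition of ES1 cells, read out with a cell viability assay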
Description: SANGER: Inhibition of human ES1 cell growth in a cell viability assay.

[19] = test system: KP-N-YS; type: functional, cell-based;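 note: cell viability assay measuring inhibition of cell line growth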
Description: SANGER: Inhibition of human KP-N-YS cell growth in a cell viability assay.

[20] = test system: NCI-H446; type: functional, cell-based;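 note: growth inhibition of NCI-H446 cells determined by a cell viability assay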
Description: SANGER: Inhibition of human NCI-H446 cell growth in a cell viability assay.

[21] = test system: OMC-1; type: functional, cell-based;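 note: growth inhibition of the OMC-1 cell line, measured by a cell viability assay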
Description: SANGER: Inhibition of human OMC-1 cell growth in a cell viability assay.

[22] = test system: ALL-PO; type: functional, cell-based;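 note: growth inhibition of ALL-PO cells, read out by a cell viability assay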
Description: SANGER: Inhibition of human ALL-PO cell growth in a cell viability assay.

[23] = test system: LU-134-A; type: functional, cell-based
Description: SANGER: Inhibition of human LU-134-A cell growth in a cell viability assay.

[24] = test system: KURAMOCHI; type: functional, cell-based;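 note: growth inhibition of KURAMOCHI cells, read out with a cell viability assay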
Description: SANGER: Inhibition of human KURAMOCHI cell growth in a cell viability assay.

[25] = test system: MSTO-211H; type: functional, cell-based
Description: SANGER: Inhibition of human MSTO-211H cell growth in a cell viability assay.

[26] = test system: EC-GI-10; type: functional, cell-based
Description: SANGER: Inhibition of human EC-GI-10 cell growth in a cell viability assay.

[27] = test system: JVM-3; type: functional, cell-based;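 note: growth inhibition of human JVM-3 cells, read out with a cell viability assay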
Description: SANGER: Inhibition of human JVM-3 cell growth in a cell viability assay.

[28] = test system: DU-4475; type: functional, cell-based
Description: SANGER: Inhibition of human DU-4475 cell growth in a cell viability assay.

[29] = test system: IST-MES1; type: functional, cell-based;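 note: growth inhibition of IST-MES1 cells, measured with a cell viability assay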
Description: SANGER: Inhibition of human IST-MES1 cell growth in a cell viability assay.

[30] = test system: GB-1; type: functional, cell-based;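 note: growth of GB-1 cells judged by a viability assay, IC50 marks the concentration inhibiting growth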
Description: SANGER: Inhibition of human GB-1 cell growth in a cell viability assay.

[31] = test system: CW-2; type: functional, cell-based;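 note: growth inhibition of CW-2 cells, read out by a cell viability assay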
Description: SANGER: Inhibition of human CW-2 cell growth in a cell viability assay.

[32] = test system: SK-MEL-1; type: functional, cell-based;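 note: growth inhibition of human SK-MEL-1 cells, read out by a cell viability assay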
Description: SANGER: Inhibition of human SK-MEL-1 cell growth in a cell viability assay.

[33] = test system: SW684; type: functional, cell-based;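 note: growth inhibition of human SW684 cells, measured by a cell viability assay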
Description: SANGER: Inhibition of human SW684 cell growth in a cell viability assay.

[34] = test system: GI-1; type: functional, cell-based;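 note: growth inhibition of human GI-1 cells, measured with a cell viability readout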
Description: SANGER: Inhibition of human GI-1 cell growth in a cell viability assay.

[35] = test system: ONS-76; type: functional, cell-based;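 note: growth inhibition of human ONS-76 cells, read out with a cell viability assay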
Description: SANGER: Inhibition of human ONS-76 cell growth in a cell viability assay.

[36] = test system: LU-139; type: functional, cell-based
Description: SANGER: Inhibition of human LU-139 cell growth in a cell viability assay.

[37] = test system: HDLM-2; type: functional, cell-based;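 note: cell viability assay measuring suppression of HDLM-2 proliferation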
Description: SANGER: Inhibition of human HDLM-2 cell growth in a cell viability assay.

[38] = test system: SW982; type: functional, cell-based;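 note: growth inhibition of SW982 cells, read out with a cell viability assay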
Description: SANGER: Inhibition of human SW982 cell growth in a cell viability assay.

[39] = test system: SK-N-FI; type: functional, cell-based;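 note: cell viability assay measuring growth inhibition of human SK-N-FI cells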
Description: SANGER: Inhibition of human SK-N-FI cell growth in a cell viability assay.

[40] = test system: NB69; type: functional, cell-based;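 note: growth inhibition of NB69 cells, determined by a cell viability assay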
Description: SANGER: Inhibition of human NB69 cell growth in a cell viability assay.

[41] = test system: HCC2218; type: functional, cell-based;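 note: cell viability assay read-out, with IC50 given as the concentration that inhibits growth of the cell line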
Description: SANGER: Inhibition of human HCC2218 cell growth in a cell viability assay.

[42] = test system: NCI-H510A; type: functional, cell-based;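 note: growth inhibition of NCI-H510A cells, read out with a cell viability assay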
Description: SANGER: Inhibition of human NCI-H510A cell growth in a cell viability assay.

[43] = test system: DMS-114; type: functional, cell-based
[44] = test system: NB13; type: functional, cell-based;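 note: cell viability readout measuring growth inhibition of human NB13 cells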
Description: SANGER: Inhibition of human NB13 cell growth in a cell viability assay.

[45] = test system: MLMA; type: functional, cell-based;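 note: growth inhibition of MLMA cells (human), determined through a cell viability readout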
Description: SANGER: Inhibition of human MLMA cell growth in a cell viability assay.

[46] = test system: ES7; type: functional, cell-based;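 note: growth inhibition of cultured human ES7 cells, read out as cell viability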
Description: SANGER: Inhibition of human ES7 cell growth in a cell viability assay.

[47] = test system: D283 Med; type: functional, cell-based
Description: SANGER: Inhibition of human D-283MED cell growth in a cell viability assay.

[48] = test system: BB65-RCC; type: functional, cell-based;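 note: growth inhibition of the cell line, measured with a cell viability assay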
Description: SANGER: Inhibition of human BB65-RCC cell growth in a cell viability assay.

[49] = test system: CTB-1; type: functional, cell-based
Description: SANGER: Inhibition of human CTB-1 cell growth in a cell viability assay.

[50] = test system: KU812 cell line; type: functional, cell-based;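 note: growth inhibition of KU812 cells, read out with a cell viability assay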
Description: SANGER: Inhibition of human KU812 cell growth in a cell viability assay.

[51] = test system: MOLT-4; type: functional, cell-based;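 note: growth inhibition of MOLT-4 cells, determined with a cell viability readout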
Description: SANGER: Inhibition of human MOLT-4 cell growth in a cell viability assay.

[52] = test system: CP66-MEL; type: functional, cell-based;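 note: growth inhibition of CP66-MEL cells determined in a cell viability assay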
Description: SANGER: Inhibition of human CP66-MEL cell growth in a cell viability assay.

[53] = test system: LB2241-RCC; type: functional, cell-based;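 note: cell viability assay measuring how strongly the cultured human renal carcinoma line is prevented from growing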
Description: SANGER: Inhibition of human LB2241-RCC cell growth in a cell viability assay.

[54] = test system: BB30-HNC; type: functional, cell-based;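 note: growth inhibition of the cultured cell line, read out by a cell viability assay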
Description: SANGER: Inhibition of human BB30-HNC cell growth in a cell viability assay.

[55] = test system: HT; type: functional, cell-based
Description: SANGER: Inhibition of human HT cell growth in a cell viability assay.

[56] = test system: Ramos-2G6-4C10; type: functional, cell-based;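 note: growth inhibition of the cell line, measured by a cell viability read-out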
Description: SANGER: Inhibition of human Ramos-2G6-4C10 cell growth in a cell viability assay.

[57] = test system: MV4-11; type: functional, cell-based, MV-4-11;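 note: cell viability readout measuring growth inhibition of human MV-4-11 cells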
Description: SANGER: Inhibition of human MV-4-11 cell growth in a cell viability assay.

[58] = test system: MC116; type: functional, cell-based;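 note: growth inhibition of MC116 cells, read out with a cell viability assay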
Description: SANGER: Inhibition of human MC116 cell growth in a cell viability assay.

[59] = test system: RPMI-8226; type: functional, cell-based
Description: SANGER: Inhibition of human RPMI-8226 cell growth in a cell viability assay.

[60] = test system: MZ2-MEL; type: functional, cell-based;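 note: growth inhibition of MZ2-MEL cells read out with a cell viability assay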
Description: SANGER: Inhibition of human MZ2-MEL cell growth in a cell viability assay.

[61] = test system: Becker; type: functional, cell-based;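 note: growth inhibition of Becker cells, read out with a cell viability assay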
Description: SANGER: Inhibition of human Becker cell growth in a cell viability assay.

[62] = test system: OCI-AML2; type: functional, cell-based;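 note: growth inhibition of OCI-AML2 cells, read out with a cell viability assay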
Description: SANGER: Inhibition of human OCI-AML2 cell growth in a cell viability assay.

[63] = test system: 697; type: functional, cell-based
Description: SANGER: Inhibition of human 697 cell growth in a cell viability assay.

[64] = test system: DMS-79; type: functional, cell-based
Description: SANGER: Inhibition of human DMS-79 cell growth in a cell viability assay.

[65] = test system: SW 954; type: functional, cell-based
Description: SANGER: Inhibition of human SW954 cell growth in a cell viability assay.

`CC[C@]1(O)C[C@@H]2CN(CCc3c([nH]c4ccccc34)[C@@](C(=O)OC)(c3cc4c(cc3OC)N(C)[C@H]3[C@@](O)(C(=O)OC)[C@H](OC(C)=O)[C@]5(CC)C=CCN6CC[C@]43[C@@H]65)C2)C1` [VINBLASTINE] gave a pIC50 [1] of 7.49, a pIC50 [2] of 8.79 and a pIC50 [3] of 8.56. The pIC50 [4] was 7.78, the pIC50 [5] was 7.97 and the pIC50 [6] was 7.63. For the same compound, the pIC50 [7] was under 7.00, the pIC50 [8] was 8.99 and the pIC50 [9] was 7.74. It also gave a pIC50 [10] of 8.07, a pIC50 [11] of 7.55 and a pIC50 [12] of 7.95. For the same compound, the pIC50 [13] was 7.58, the pIC50 [14] was 8.83 and the pIC50 [15] was 8.92. It also gave a pIC50 [16] of 7.25, a pIC50 [17] of 9.10 and a pIC50 [18] of 8.33. For the same compound, the pIC50 [19] was 7.64, the pIC50 [20] was 8.67 and the pIC50 [21] was under 7.00. For the same compound, the pIC50 [22] was 8.28, the pIC50 [23] was 8.07 and the pIC50 [24] was under 7.00. The pIC50 [25] was 7.91, the pIC50 [26] was 8.45 and the pIC50 [27] was 8.77. For the same compound, the pIC50 [28] was under 7.00, the pIC50 [29] was 7.17 and the pIC50 [30] was 7.40. It also gave a pIC50 [31] of under 7.00, a pIC50 [32] of 7.17 and a pIC50 [33] of under 7.00. It also gave a pIC50 [34] of 8.36, a pIC50 [35] of 8.43 and a pIC50 [36] of 7.85. The pIC50 [37] was under 7.00, the pIC50 [38] was 8.05 and the pIC50 [39] was under 7.00. The pIC50 [40] was 8.24, the pIC50 [41] was 7.10 and the pIC50 [42] was 8.56. It also gave a pIC50 [43] of 7.68, a pIC50 [44] of 8.48 and a pIC50 [45] of 8.33. For the same compound, the pIC50 [46] was 8.24, the pIC50 [47] was 7.41 and the pIC50 [48] was 7.68. For the same compound, the pIC50 [49] was 8.79, the pIC50 [50] was 7.77 and the pIC50 [51] was 8.41. It also gave a pIC50 [52] of 7.31, a pIC50 [53] of 7.99 and a pIC50 [54] of 8.08. For the same compound, the pIC50 [55] was 7.81, the pIC50 [56] was 8.81 and the pIC50 [57] was 8.55. It also gave a pIC50 [58] of 8.10, a pIC50 [59] of 8.54 and a pIC50 [60] of 7.22. It also gave a pIC50 [61] of 8.95, a pIC50 [62] of under 7.00 and a pIC50 [63] of 8.21. For the same compound, the pIC50 [64] was under 7.00 and the pIC50 [65] was 8.01.
